From patent publication US10031128B2, “Screening method, screening kit and analysis program” (National Institutes for Quantum and Radiological Science …, priority 2012, dated 2018)
Where two headings read alike, the source gives them in different places.

System: rat thymocytes
Assay type: cell-based
Details: 4 h, pH 6.8
Description: As Example 1, an example using thymocytes as lymphoid cells will be described. In this example, rat thymocytes are used. A rat is suited for studies of screening and the like because a rat has the thymus larger than that of a mouse, and a large quantity of thymocytes corresponding to 2000 to 20000 samples is obtained from one rat.
(1) First, extract the thymus surgically from a rat.
(2) The extracted thymus is washed lightly in PBS. This washing may be performed for 1 minute to 5 minutes, and actually for 2 minutes to 3 minutes merely for washing out excess blood or tissues.
(3) The washed thymus is put into a RPMI 1640 medium supplemented with approximately 10% FBS (fetal bovine serum) (having subjected to an inactivation treatment). As the inactivation treatment, a heat treatment at 56° C. is performed for 30 minutes. In the example, the RPMI 1640 medium is 500 ml (ml is a unit symbol for milliliter, the same shall apply hereinafter), and FBS is 55 ml. Thereafter, the thymocytes are kept in the RPMI 1640 medium supplemented with serum to improve the separating ability of the presence or absence of condensation, and improve the measurement accuracy.
(4) Thymocytes are squeezed out of the thymus with tweezers, and passed through mesh to remove unnecessary contaminants and to disassemble the thymocytes. The culture temperature during this treatment is 4° C., and pH is 6.8. The amount of the medium used during cell purification is approximately 20 ml.
(5) The number of cells is counted, and a required number of the cells are seeded on a plate. In the experiment of this example, 5×10^5 cells/well are seeded using a 48-well plate. Also, since measurement is performed for about 20 samples in the experiment of this example, approximately 10 ml of a medium is used. As the medium, a medium of the volume conforming to the container is required. For example, when a 48-well plate is used, approximately 500 μl/well (microliter per well) is required in seeding cells on the plate. When a 96-well plate is used, approximately 50 to 200 μl/well is required in seeding cells on the plate. When one 96-well plate is used, up to approximately 20 ml of a medium is required.
In this example, (I) irradiation with 2 Gy X-ray, (II) administration with a 1 mM (mM is a unit symbol for millimolar, the same shall apply hereinafter) catechin derivative, (III) preliminary administration with a 1 mM catechin derivative and irradiation with 2 Gy X-ray, (IV) administration with 100 μM epigallocatechin (μM is a unit symbol for micromolar, the same shall apply hereinafter), (V) administration with 10 μM vitamin C, or (VI) administration with 100 μM vitamin C was performed. The temperature of the medium in performing this treatment can be 4° C. to room temperature, and is preferably approximately 4° C. so as not to promote the reaction. Gray (Gy) is a unit for absorbed dose of radiation. The absorbed dose when 1 joule of radiation energy is absorbed in 1 kilogram of a substance by radiation is defined as 1 gray.
The samples of (I) to (VI) in Step 2 were incubated for 4 hours. During the incubation, the medium is at a temperature of 37° C., at a CO2 concentration of 5%, under humidification, and at pH 6.8.
After the incubation in Step 3, measurement was performed by using FACSCALIBUR™ (a flow cytometry system). The time required for the measurement is about one hour. […]
FIG. 2(A) to FIG. 2(D), and FIG. 3(A) to FIG. 3(D) are cell size measurement graphs showing measured cell sizes. […]

| SMILES | another peak at apoptotic cell peak position (cell size) (10 μM) | peak of cell size (cell size measurement graph) (10 μM) | another peak at apoptotic cell peak position (cell size) (100 μM) | peak of cell size (cell size measurement graph) (100 μM) |
| --- | --- | --- | --- | --- |
| O=C1O[C@H]([C@@H](O)CO)C(O)=C1O [vitamin C] | around 250 | around 400 | around 250 | around 400 |
| Oc1cc(O)c2c(c1)O[C@H](c1cc(O)c(O)c(O)c1)[C@H](O)C2 [epigallocatechin] |  |  |  | around 300 |
